From paper PMC5675611, “GZD824 suppresses the growth of human B cell precursor acute lymphoblastic leukemia cells by inhibiting the SRC kinase and PI3K/AKT pathways” (Oncotarget, 2016)

Assays:
NALM6 cells = experiment: Annexin V apoptosis flow cytometry; format: cell-based, human
Experimental: Human pre-B ALL cell lines NALM6 and SUPB15 were purchased from American Type Culture Collection (ATCC, Maryland, USA). All pre-B ALL cell lines were maintained in cell culture media and conditions as recommended by the ATCC. Cells were treated with GZD824 for 24 hours. GZD824 (3μM, 1μM, or 0.5μM) was used in the experiments unless otherwise noted. NALM6 and SUPB15 cells were maintained in RPMI-1640 medium (Gibco, New York, NY, USA) with 10% fetal bovine serum (Biochrom, Melbourne, Australia).
(§1) For identification of apoptotic cells among NALM6, SUPB15, and primary pre-B ALL cells, the GZD824-treated cells were stained with Annexin V Apoptosis Detection Kit (88-8007, BD ebioscience, CA, USA) according to the manufacturer's instructions (Affymetrix ebioscience, CA, USA) and then subjected to flow cytometric analysis by the Accuri™ C6 (BD Biosciences, CA, USA). For the in vitro drug sensitivity test in Figure 6A, the human CD45+ cells in spleen and bone marrow from sick mice account for over 95% of the total. We enriched human CD45+ cells in PB by MACS according to the manufacturer's instruction. After the enrichment, the purity of human CD45+ cell in PB reached 95%. The percentage of apoptotic cells was demarcated as the amount of both early and late facets of apoptosis (annexin V positive), as previously described. All data were analyzed with FlowJo software (Tree Star, Inc., Ashland, USA).

SUPB15 cells = experiment: Annexin V apoptosis flow cytometry; format: cell-based, human; conditions: 24 h
Experimental: Human pre-B ALL cell lines NALM6 and SUPB15 were purchased from American Type Culture Collection (ATCC, Maryland, USA). All pre-B ALL cell lines were maintained in cell culture media and conditions as recommended by the ATCC. Cells were treated with GZD824 for 24 hours. GZD824 (3μM, 1μM, or 0.5μM) was used in the experiments unless otherwise noted. NALM6 and SUPB15 cells were maintained in RPMI-1640 medium (Gibco, New York, NY, USA) with 10% fetal bovine serum (Biochrom, Melbourne, Australia). For identification of apoptotic cells among NALM6, SUPB15, and primary pre-B ALL cells, the GZD824-treated cells were stained with Annexin V Apoptosis Detection Kit (88-8007, BD ebioscience, CA, USA) according to the manufacturer's instructions (Affymetrix ebioscience, CA, USA) and then subjected to flow cytometric analysis by the Accuri™ C6 (BD Biosciences, CA, USA). For the in vitro drug sensitivity test in Figure 6A, the human CD45+ cells in spleen and bone marrow from sick mice account for over 95% of the total. We enriched human CD45+ cells in PB by MACS according to the manufacturer's instruction. After the enrichment, the purity of human CD45+ cell in PB reached 95%. […] All data were analyzed with FlowJo software (Tree Star, Inc., Ashland, USA).

primary pre-B ALL cells = experiment: Annexin V apoptosis of primary pre-B ALL cells; format: cell-based, human
Experimental: Human pre-B ALL cells were obtained from spleen (SP) of sick pre-B ALL xenograft mice. Human CD45+ pre-B ALL cells, accounting for over 95% of the total SP mononuclear cells, were subjected in vitro assay. To determine the in vitro anticancer efficacy of GZD824, the drug was applied to fresh splenic pre-B ALL cells that were directly isolated from sick pre-B ALL xenograft mice in 3 independent experiments. In addition, fresh splenic cells were analyzed 24 hours post drug treatment. At this time point about 20% of the total cells in the vehicle group are apoptotic. […] All cells were cultured at 37°C in 5% carbon dioxide and a normal level of oxygen.
as §1

[1] = system: normal human primary B cells; experiment: Annexin V apoptosis of normal B cells; format: cell-based; conditions: 1μM, vs DMSO
ABL = target: T1, ABL (Homo sapiens, UniProt P00519); experiment: Active-site-dependent competition kinase binding assay (KINOMEscan)
T1 construct: purchased Ambit Bioscience (CA, USA), KINOMEscan service
T1 sequence (P00519 whole entry): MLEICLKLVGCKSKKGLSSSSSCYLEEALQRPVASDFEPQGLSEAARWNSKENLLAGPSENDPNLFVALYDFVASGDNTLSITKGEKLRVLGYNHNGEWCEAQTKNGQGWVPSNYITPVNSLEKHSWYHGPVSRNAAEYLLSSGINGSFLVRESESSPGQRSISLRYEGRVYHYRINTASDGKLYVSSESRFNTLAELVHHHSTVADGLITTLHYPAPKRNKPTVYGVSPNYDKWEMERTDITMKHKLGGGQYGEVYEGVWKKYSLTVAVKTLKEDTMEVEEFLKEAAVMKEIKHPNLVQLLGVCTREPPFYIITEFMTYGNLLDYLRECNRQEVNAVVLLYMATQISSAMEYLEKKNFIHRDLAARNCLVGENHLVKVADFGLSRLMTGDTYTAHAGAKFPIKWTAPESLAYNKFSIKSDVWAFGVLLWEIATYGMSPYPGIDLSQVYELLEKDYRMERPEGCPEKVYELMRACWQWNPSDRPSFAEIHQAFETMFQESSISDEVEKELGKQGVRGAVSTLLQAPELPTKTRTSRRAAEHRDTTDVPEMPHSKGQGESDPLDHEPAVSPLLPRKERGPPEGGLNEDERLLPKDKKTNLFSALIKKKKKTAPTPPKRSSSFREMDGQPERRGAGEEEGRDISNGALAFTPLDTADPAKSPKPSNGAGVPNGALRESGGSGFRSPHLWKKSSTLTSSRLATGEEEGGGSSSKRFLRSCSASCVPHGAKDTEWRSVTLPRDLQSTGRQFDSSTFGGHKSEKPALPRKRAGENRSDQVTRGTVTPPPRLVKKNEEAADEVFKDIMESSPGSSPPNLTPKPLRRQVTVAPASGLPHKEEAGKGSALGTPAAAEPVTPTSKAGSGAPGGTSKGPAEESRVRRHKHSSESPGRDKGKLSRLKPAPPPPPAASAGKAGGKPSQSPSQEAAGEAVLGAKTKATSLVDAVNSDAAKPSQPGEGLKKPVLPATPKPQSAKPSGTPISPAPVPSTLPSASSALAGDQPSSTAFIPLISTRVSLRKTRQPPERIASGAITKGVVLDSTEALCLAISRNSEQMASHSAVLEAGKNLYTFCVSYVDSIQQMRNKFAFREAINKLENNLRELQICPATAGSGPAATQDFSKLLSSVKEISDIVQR
Experimental: (§2) Kinase assay was performed as previously described. The binding activities of GZD824 were analyzed by KINOME scan system conducted by Ambit Bioscience (CA, USA). Briefly, kinases were tagged with DNA. The ligands were biotinylated and immobilized to streptavidin coated beads. The binding reactions were assembled by incubating DNA-tagged kinases, immobilized ligands, and test compounds in binding reactions (20% SeaBlock, 0.17×PBS, 0.05% tween-20, 6 mM DTT) for 1.0 h at room temperature. The affinity beads were washed with washing buffer (1×PBS, 0.05% Tween-20) first and then elution buffer (1×PBS, 0.05% Tween 20, 0.5μM nonbiotinylated affinity ligands). The kinase concentration in the eluate was determined by quantitative PCR of the DNA tagged to the kinase. The ability of the test compound to bind to the kinase was evaluated with percent control (%) as (test compound signal −positive control signal)/negative control signal−positive control signal) ×100%. Negative control is DMSO control (100% ctrl) and positive control is control compound (0% ctrl).

JAK = experiment: as above
Experimental: as §2

MAPK = experiment: as above
Experimental: as §2

SRC = target: T2, SRC (Homo sapiens, UniProt P12931); experiment: as above
T2 construct: purchased Ambit Bioscience (CA, USA), KINOMEscan service
T2 sequence (P12931 whole entry): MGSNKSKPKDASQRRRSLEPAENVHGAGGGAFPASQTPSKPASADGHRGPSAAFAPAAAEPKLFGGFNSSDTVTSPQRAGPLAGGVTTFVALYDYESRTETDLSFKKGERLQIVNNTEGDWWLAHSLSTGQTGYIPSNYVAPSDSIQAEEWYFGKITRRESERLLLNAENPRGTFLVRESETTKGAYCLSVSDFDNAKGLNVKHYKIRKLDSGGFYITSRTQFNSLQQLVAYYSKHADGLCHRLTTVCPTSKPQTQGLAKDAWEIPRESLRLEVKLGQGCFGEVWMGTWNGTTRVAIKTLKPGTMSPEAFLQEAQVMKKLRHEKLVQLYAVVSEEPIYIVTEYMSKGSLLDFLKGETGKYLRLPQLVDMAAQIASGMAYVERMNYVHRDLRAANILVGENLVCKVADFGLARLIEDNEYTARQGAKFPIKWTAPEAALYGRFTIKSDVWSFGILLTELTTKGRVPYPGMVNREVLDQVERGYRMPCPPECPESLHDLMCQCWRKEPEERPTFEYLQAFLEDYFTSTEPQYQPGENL
Experimental: as §2

In the case of `Cc1ccc(C(=O)Nc2ccc(CN3CCN(C)CC3)c(C(F)(F)F)c2)cc1C#Cc1cnc2[nH]ncc2c1` [GZD824], the “percentages of apoptotic cells” value (NALM6 cells; NALM6, 500 nM) is reported as “did not increase”, the apoptotic rate (NALM6 cells; NALM6, 1μM, 24 h) is reported as “moderate” and the “apoptosis (Annexin V-positive cells), comparison of inhibitors” value (NALM6 cells; NALM6, 3μM of drug, 24 hours, Fig 5E) is reported as “significantly increased apoptotic level”. For the same molecule, the “cells undergoing apoptosis (AnnexinV+)” value (NALM6 cells; NALM6, 3μM, 24 h) was 74.4%, the apoptotic rate (SUPB15 cells; SUPB15, 1μM) was “moderate” and the “cells undergoing apoptosis (AnnexinV+)” value (SUPB15 cells; SUPB15, 3μM) was 48.3%. The “percentages of apoptotic cells” value (primary pre-B ALL cells; all five patient samples (P#1-P#5), 1μM, vs DMSO) was “significantly increased”, the “percentages of apoptotic pre-B ALL cells derived from BM compared to those from SP and PB” value (primary pre-B ALL cells; cells from P#2 xenograft mice, 1μM GZD824, 24 hours in vitro) was “significantly lower” and the “apoptotic levels, GZD824 alone vs both GZD824 and IGF-1” value (primary pre-B ALL cells; primary pre-B ALL cells from spleen of P#1 xenograft mouse, GZD824 1μM, IGF-1 10ng/ML) was “much higher apoptotic levels”. For the same molecule, the “apoptosis in normal human primary B cells” value [1] was “did not induce apoptosis”, the remaining binding at 0.01 µM (ABL; read-out: %Ctrl@10nM) was 2.8% and the remaining binding at 0.1 µM (ABL; read-out: %Ctrl@100nM) was 0.15%. The “%Ctrl@10nM” value (JAK; JAK, 10 nM, mean of two independent experiments) was 100%, the “%Ctrl@100nM” value (JAK; JAK, 100 nM, mean of two independent experiments) was 100% and the “binding to JAK (in words)” value (JAK; kinase assay) was “does not bind”. For the same molecule, the “%Ctrl@10nM” value (MAPK; MAPK, 10 nM, mean of two independent experiments) was 81%, the “%Ctrl@100nM” value (MAPK; MAPK, 100 nM, mean of two independent experiments) was 81% and the “binding to MAPK (in words)” value (MAPK; kinase assay) was “does not bind”. The remaining binding at 0.01 µM (SRC; SRC, 10 nM, mean of two independent experiments, read-out: %Ctrl@10nM) was 26%, the remaining binding at 0.1 µM (SRC; SRC, 100 nM, mean of two independent experiments, read-out: %Ctrl@100nM) was 0.75% and the “binding to the SRC kinase (in words)” value (SRC; kinase assay) was “high affinity”.
